Results as given in US8163724B2, “Glucocorticosteroids, processes for their preparation, pharmaceutical compositions containing them and their use in therapy” (AstraZeneca AB, priority 2007, dated 2012).

Target: T1, recombinant human GR (Homo sapiens, UniProt P04150)
T1 construct: purchased Panvera/Invitrogen P2812 (kit P2893)
T1 sequence (P04150 1-777): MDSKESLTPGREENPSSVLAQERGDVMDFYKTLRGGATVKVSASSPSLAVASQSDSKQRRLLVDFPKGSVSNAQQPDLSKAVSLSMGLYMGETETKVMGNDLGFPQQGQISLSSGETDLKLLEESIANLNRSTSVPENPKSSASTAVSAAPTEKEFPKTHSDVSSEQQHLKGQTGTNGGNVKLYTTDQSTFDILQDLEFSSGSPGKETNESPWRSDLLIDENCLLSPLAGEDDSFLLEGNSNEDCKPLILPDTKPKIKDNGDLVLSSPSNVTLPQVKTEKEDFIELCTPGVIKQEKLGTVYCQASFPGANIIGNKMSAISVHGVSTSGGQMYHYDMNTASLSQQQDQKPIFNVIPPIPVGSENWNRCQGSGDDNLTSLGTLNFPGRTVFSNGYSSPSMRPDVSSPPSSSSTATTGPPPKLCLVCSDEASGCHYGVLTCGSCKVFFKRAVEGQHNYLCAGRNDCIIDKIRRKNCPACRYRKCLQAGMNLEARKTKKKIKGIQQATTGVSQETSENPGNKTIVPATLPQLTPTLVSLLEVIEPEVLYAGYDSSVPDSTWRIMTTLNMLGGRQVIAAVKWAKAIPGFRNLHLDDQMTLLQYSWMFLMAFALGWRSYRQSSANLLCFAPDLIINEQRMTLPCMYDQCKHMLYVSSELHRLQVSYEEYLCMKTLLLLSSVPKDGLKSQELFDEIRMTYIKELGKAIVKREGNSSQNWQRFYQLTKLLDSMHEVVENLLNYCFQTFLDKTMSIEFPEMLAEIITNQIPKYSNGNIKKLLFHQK
Test: Human Glucocorticoid Receptor (GR) Assay (fluorescence polarization, Panvera/Invitrogen kit)
Type: binding
Conditions: fluorescence polarization; GS Red tracer; 2 hours at room temperature; 100% control 10 μM Dexamethasone; read-out: Inhibition of GR binding, IC50
Procedure, shortened: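 Fluorescence polarization competition with recombinant GR and GS Red fluorescent ligand plus stabilizing peptide and DTT in potassium phosphate/sodium molybdate/EDTA buffer with DMSO. Incubated 2 hours at room temperature in the dark; 0% control DMSO, 100% control 10 μM dexamethasone.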

Row | Compound | IC50 [nM]
1 | CCC(=O)O[C@]1(C(=O)SCF)CC[C@H]2[C@@H]3C[C@H](C)C4=Cc5c(cnn5-c5ccc(F)cc5)C[C@]4(C)[C@H]3[C@@H](O)C[C@@]21C [Example 214, (1R,3aS,3bS,5S,10aR,10bS,11S,12aS)-1-{[(Fluoromethyl)sulfanyl]carbonyl}-7-(4-fluorophenyl)-11-hydroxy-5,10a,12a-trimethyl-1,2,3,3a,3b,4,5,7,10,10a,10b,11,12,12a-tetradecahydrocyclopenta[5,6]naphtho[1,2-f]indazol-1-yl propanoate] | 49
2 | COCC(=O)O[C@]1(C(=O)SCC#N)CC[C@H]2[C@@H]3C[C@H](C)C4=Cc5c(cnn5-c5ccc(F)cc5)C[C@]4(C)[C@H]3[C@@H](O)C[C@@]21C [Example 215, (1R,3aS,3bS,5S,10aR,10bS,11S,12aS)-1-{[(Cyanomethyl)sulfanyl]carbonyl}-7-(4-fluorophenyl)-11-hydroxy-5,10a,12a-trimethyl-1,2,3,3a,3b,4,5,7,10,10a,10b,11,12,12a-tetradecahydrocyclopenta[5,6]naphtho[1,2-f]indazol-1-yl methoxyacetate] | 51
3 | COCC(=O)O[C@]1(C(=O)SCF)CC[C@H]2[C@@H]3C[C@H](C)C4=Cc5c(cnn5-c5ccc(F)cc5)C[C@]4(C)[C@H]3[C@@H](O)C[C@@]21C [Example 216, (1R,3aS,3bS,5S,10aR,10bS,11S,12aS)-1-{[(Fluoromethyl)sulfanyl]carbonyl}-7-(4-fluorophenyl)-11-hydroxy-5,10a,12a-trimethyl-1,2,3,3a,3b,4,5,7,10,10a,10b,11,12,12a-tetradecahydrocyclopenta[5,6]naphtho[1,2]-indazol-1-yl methoxyacetate] | 8.8
4 | (1R,3aS,3bS,10aR,10bS,11S,12aS)-1-{[(Cyanomethyl)sulfanyl]carbonyl}-7-(4-fluorophenyl)-11-hydroxy-10a,12a-dimethyl-1,2,3,3a,3b,4,5,7,10,10a,10b,11,12,12a-tetradecahydrocyclopenta[5,6]naphtho[1,2]-indazol-1-yl 2-methyltetrahydrofuran-2-carboxylate [Example 132] | 4
